According to patent publication US7122668B2, “Platinum complexes and their use in therapy” (priority 2002, dated 2006):
Like-named read-outs stand apart in the source and are kept apart here.

Legend:
C-26 cells [1] = test: Platinum complex intracellular accumulation (FAAS); format: cell-based, human; conditions: C-26, 24 hr
Protocol: (§1) Cells were seeded for 48 hr before one of the complexes was added to the culture medium. After 24 hr of exposure, the complexes were removed and the cells washed twice with ice-cold PBS and pelleted. The cells (1*10^6) were dried and mineralized by heating for 10 min in 65% HNO3 (BDH, England)^(22). Samples were dissolved in de-ionized water and each sample was measured at two different dilutions by flameless Zeeman atomic absorption spectrometer (FAAS). The calibration curves included 5 standards of K2PtCl4 stock solution with concentrations ranging from 50 to 250 ng platinum per ml. Platinum content was expressed as picomoles platinum per 1*10^6 cells.
(§2) The Pt content associated with the cells was measured by Atomic Absorption Spectroscopy (AAS).

OV-1063 cells [2] = test: Platinum complex intracellular accumulation (FAAS); format: cell-based, human; conditions: OV-1063, 24 hr
Protocol: as §1, §2

OV-1063 cells [3] = test: Methylene blue (MB) assay of cell survival; format: cell-based, human; conditions: mean ± SD
Protocol: (§3) A human ovarian carcinoma cell line (OV-1063), established at the Hadassah University hospital and human colon carcinoma cell line (C-26) were maintained in RPMI-1640 medium supplemented with 10% FCS, antibiotics and glutamine. All culture medium components were purchased from Biological Industries (Beit-HaEmek, Israel). Both cell lines were maintained at 37° C. in a water-jacketed CO2 incubator.
(§4) Cytotoxicity of the synthesized complexes was tested by the methylene blue (MB) staining assay^(19). A fixed number of exponentially growing cells in 200 μl medium were plated in 96-microwell, flat-bottomed plates. For each of the complexes tested, 4 well were used. Following 24 hr in culture, 20 μl of different concentration of the complexes were added to each well containing untreated cells. Normal saline was added to the controls. Cells were exposed to complexes for 4, 24, or 72 hr. At the end of exposure for a fixed time interval, the treated cells as well as parallel control cells were washed and incubation was continued in fresh medium until termination of the experiment. Following 72 hr of growth, cells were fixed by adding 50 μl of 2.5% of glutaraldehyde to each well for 15 min. Fixed cells were rinsed 10 times with fresh de-ionized water and once with borate buffer (0.1 M, pH=8.5), dried and stained with MB (100 μl of 1% solution in 0.1 M borate buffer, pH=8.5) for 1 hr at room temperature. Stained cells were rinsed thoroughly with de-ionized water to remove any non-cell-bound die and then dried. The MB bound to the fixed cells was extracted by incubation at 37° C. with 200 μl of 0.1N HCl for 1 hr, and the net optical density (OD) of the die in each well was determined by a plate spectrophotometer (Labsystems Multyskan BICHROMATIC, Finland) at 620 nm.

C-26 colon carcinoma = test: In vivo antitumor efficacy; design: species or system BALB/C mice; conditions: 5 mg/kg, three injections at weekly intervals from day 3 after i.p. tumor inoculation
Protocol: Female BALB/C mice (in the weight range of 17–20 g) were injected i.p. with 1*10^6 C-26 colon carcinomas.
Treatment began at day 3 after tumor inoculation and was repeated twice for a total of three injections at weekly intervals.
Female BALB/C mice (in the weight range of 17–20 gr) were injected i.p. with 1*10^6 C-26 colon carcinomas.
Treatment was as performed according to the schedule described above.

C-26 cells [4] = test: Determination of Pt-DNA adducts by FAAS; format: cell-based, human; conditions: for Pt-DNA adducts: C-26, 24 hr
Protocol: (§5) Cells were seeded for 48 hr before one of the drugs was added to the culture medium. After 24 hr of exposure, the complexes were removed and the cells washed twice with ice-cold PBS and pelleted. DNA from platinum-containing material (2*10^6 cells) was extracted from the cell pellet by QIAamp DNA Blood Kit (QIAGEN, Germany) according to the manufacture instructions. DNA yield was determined by measuring the concentration of DNA in the eluate by absorbance at 260 nm.

OV-1063 cells [5] = test: Determination of Pt-DNA adducts by FAAS; format: cell-based, human; conditions: for Pt-DNA adducts: OV-1063, 24 hr
Protocol: as §5

C-26 cells [6] = format: cell-based; conditions: C-26 cells, mean ± SD
Protocol: as §3, §4

caspase-3 in C-26 cells = test: EnzChek Caspase-3 assay; format: cell-based, human; conditions: 4.5 μM complex, cisplatin 1.5 μM, 5 or 16 hrs
Text: (§6) (2) By the EnzChektm Caspase-3 Assay Kit (Molecular probes, Eugene, Oreg.). This Kit allows the detection of apoptosis by assaying for increases in caspase-3 and other DEVD-specific protease activities (e.g., caspase-7). The basis for the assay is rodamine 110 bis-(N-CBZ-aspartil-L-glutarnyl-L-valyl-aspartic acid amide) (Z-DEVD-R110). This substrate is a bisamide derivative of rhodamine 110(R110) containing DEVD peptides covalently linked to each of R110's amino groups. Upon enzymatic cleavage, the non-fluorescent bisamide substrate converted to the fluorescent R110, which can be quantified by fluorescence microplate reader using excitation at 485±10 nm and emission detection at 535±10 nm.
(§7) (12) (5 μM and 7.5 μM, respectively) for 5 or 16 hr. Both “induced” and “control” cells were then harvested and lysed. Enzyme reactions were performed in 96-well plates with 50 μg of cytosolic proteins (55 minutes of incubation) and with a final concentration of 25 μM Z-DEVD-R110 substrate as described in the kit protocol.

[7] = system: caspase-3 in OV-1063 cells; test: EnzChek Caspase-3 assay; format: cell-based, human
Text: as §6, §7

calf thymus DNA = test: DNA binding (calf thymus DNA platination); conditions: for t1/2 half time of the binding to calf thymus DNA: 10 mM NaClO4, 37° C., ri = 0.08, differential pulse polarography; for ΔΔεmax, maximum of the positive CD band at around 275 nm: difference between control and platinated DNA
Protocol: The formation of calf thymus DNA platination was also examined. To this end, calf thymus DNA was incubated with different compounds (Table 3) in which the following parameters were determined: […]

A2780cisR = test: Microculture tetrazolium (MTS) cell survival assay; format: cell-based; conditions: for IC50: 24 hours incubation, MTS; for resistance factor (IC50 resistant/IC50 sensitive): A2780cisR/A2780
Protocol: (§8) Cytotoxicity of the synthesized complexes was also tested by the MTS method^(21). Accordingly, the compounds were incubated for 24 hours with the corresponding cell lines and the cell survival in compound-treated cultures was evaluated.
(§9) The complexes were incubated for 24 hours with the above mentioned cell lines and the cell survival in compound-treated cultures was evaluated by the (microculture tetrazolium) MTS method as previously reported.

CH1 = test: Microculture tetrazolium (MTS) cell survival assay; format: cell-based; conditions: 24 hours incubation
Protocol: as §8, §9

41M = test: Microculture tetrazolium (MTS) cell survival assay; format: cell-based; conditions: 24 hours incubation
Protocol: as §8, §9

41McisR = test: Microculture tetrazolium (MTS) cell survival assay; format: cell-based; conditions: for resistance factor (IC50 resistant/IC50 sensitive): 41McisR/41M; for IC50: 24 hours incubation, MTS
Protocol: as §8, §9

A2780 = test: Microculture tetrazolium (MTS) cell survival assay; format: cell-based; conditions: 24 hours incubation
Protocol: as §8, §9

CH1cisR = test: Microculture tetrazolium (MTS) cell survival assay; format: cell-based; conditions: for IC50: 24 hours incubation, MTS; for resistance factor (IC50 resistant/IC50 sensitive): CH1cisR/CH1
Protocol: as §8, §9

[8] = system: Ubiquitin and Heart Myoglobin; conditions: 1:1 reaction, 1–2 mM, 10 mM phosphate buffer, pH 6.4, 37° C.
Protocol: Since most platinum(II) derivatives which are administered intravenously become protein bound within 24 hr, the binding kinetics of two model proteins, Ubiquitin (MW 8565) and Heart Myoglobin (MW 16951), to Pt complexes was determined. To this end, a 1:1 reaction between the platinum complexes and the proteins were carried out at 1–2 mM concentrations, in 10 mM phosphate buffer, pH 6.4 at 37° C. Protein binding kinetics were measured directly on the reaction mixtures, by Electrospray Ionization Mass Spectrometry (ESI-MS).

plasmid pS16-hGH DNA = test: Determination of Pt-DNA adducts by EtBr fluorescence; format: binding; conditions: DNA modified 24 hr
Protocol: A plasmid (4.8 kbp) containing a gene coding for human growth hormone, plasmid pS16-hGH, was prepared as previously described^(23). The freshly prepared DNA was analyzed by agarose gel (1%) electrophoresis using post-staining with SYBR Green I fluorescent dye (Molecular Probes, Eugene, Oreg.). […] The ratio of absorbance at 260 nm to that at 280 nm was always between 1.8 and 1.9.
DNA were modified by the platinum complexes in 10 mM NaClO4 (pH 7.0) at 37° C. in the dark for 24 hr. Measurements of EtBr fluorescence were performed on an LS50B luminescence spectrometer (Perkin Elmer, Norwalk, Conn.). Fluorescence measurements of DNA modified by platinum in the presence of EtBr were performed using the excitation wavelength of 546 nm (slit 10 run) and emission wavelength of 590 nm (slit 10 nm) at 25° C. The concentrations were 0.01 mg/ml for DNA and 0.04 mg/ml for EtBr, which corresponded to the saturation of all intercalation sites of EtBr in DNA.
EtBr, as the fluorescent probe, was used to distinguish between perturbations induced in DNA by adducts of platinum (II) compounds^(14). Binding of EtBr by intercalation is blocked in a stoichiometric manner by formation of the bifunctional adducts, as of Cis-Pt, which results in a loss of fluorescence intensity. On the other hand, formation of monofunctional adducts results only in a slight decrease of EtBr fluorescence.

In vivo toxicity = test: In vivo toxicity; design: species or system BALB/C mice; conditions: 5 mg/kg, i.v., three times at weekly intervals
[9] = cited from earlier work
[10] = 4 h exposure, read-out: IC50, 4 h
[11] = 24 h exposure, read-out: IC50, 24 h
[12] = 72 h exposure, read-out: IC50, 72 h
[13] = listed as trans-[PtCl2(NH3)(pip)]
[14] = rb = 0.05, listed as trans-[PtCl2(NH3)(pip)]

## N.N.[Cl][Pt][Cl] [Cisplatin, cis-[PtCl2(NH3)2], reference compound]
C-26 cells [1]
  Penetration to cells: 2244 pmol Pt/1 * 10^6 cells
OV-1063 cells [2]
  Penetration to cells: 194 pmol Pt/1 * 10^6 cells
OV-1063 cells [3]; [10]
  IC50: 2 ± 0.5 µM
OV-1063 cells [3]; [11]
  IC50: 0.7 ± 0.2 µM
OV-1063 cells [3]; [12]
  IC50: 0.5 ± 0.2 µM
C-26 colon carcinoma
  Increase in life span: 108%
  Survival: 24 ± 5 days
C-26 cells [4]
  Pt-DNA adducts: 149 pmol Pt/50 μg DNA
OV-1063 cells [5]
  Pt-DNA adducts: 107 pmol Pt/50 μg DNA
C-26 cells [6]; [10]
  IC50: 1.5 ± 1.3 µM
C-26 cells [6]; [11]
  IC50: 0.6 ± 0.1 µM
C-26 cells [6]; [12]
  IC50: 0.2 ± 0.2 µM
caspase-3 in C-26 cells
  caspase-3 fluorescent signal: No fluorescent signal
[7]; cisplatin 2 μM, 5 or 16 hrs
  caspase-3 fluorescent signal: No fluorescent signal
Calf thymus DNA
  % IEC/adduct, frequency of interstrand crosslinks: 6%
  unwinding angle per adduct: 13°
  t1/2 half time of the binding to calf thymus DNA: 100 min
Calf thymus DNA; rb = 0.05, 0.01M Na+
  ΔTm, 0.01M Na+: −2.6 0.C
Calf thymus DNA; rb = 0.05
  ΔTm, 0.2 M: −4.0 0.C
  ΔΔεmax, maximum of the positive CD band at around 275 nm: 1.27
A2780cisR
  IC50: 38 µM
  resistance factor (IC50 resistant/IC50 sensitive): 17.3
CH1
  IC50: 6 µM
41M
  IC50: 26 µM
41McisR
  resistance factor (IC50 resistant/IC50 sensitive): 4.1
  IC50: 107 µM
A2780
  IC50: 2.2 µM
CH1cisR
  IC50: 23 µM
  resistance factor (IC50 resistant/IC50 sensitive): 3.8

## C1CCNCC1.N.[Cl][Pt][Cl] [Complex 1, Trans-[PtCl2(NH3)(piperidine)]]
[8]
  binding to the proteins: binds rapidly
Calf thymus DNA; [13]
  % IEC/adduct, frequency of interstrand crosslinks: 26%
  unwinding angle per adduct: 52.8°
Calf thymus DNA; rb = 0.05, 0.01M Na+, listed as trans-[PtCl2(NH3)(pip)]
  ΔTm, 0.01M Na+: +7.6 0.C
Calf thymus DNA; [14]
  ΔTm, 0.2 M: −1.9 0.C
  ΔΔεmax, maximum of the positive CD band at around 275 nm: 0.15

## C1CCN(C2CCNCC2)CC1.N.[Cl][Pt][Cl] [Complex 3, Trans-[PtCl2(NH3)(4-piperidino-piperidine)]]
C-26 colon carcinoma
  Increase in life span: 108%
  Survival: 24 ± 3 days
Plasmid pS16-hGH DNA
  decrease of EtBr fluorescence intensity by DNA adducts: The best adduct
In vivo toxicity
  toxicity (animal weight and survival): non-toxic

## Trans-[PtCl2(4-picoline)(piperazine)].HCl [Complex 13]
C-26 cells [1]
  Penetration to cells: 54461 pmol Pt/1 * 10^6 cells
OV-1063 cells [2]
  Penetration to cells: 12307 pmol Pt/1 * 10^6 cells
C-26 cells [4]
  Pt-DNA adducts: 297 pmol Pt/50 μg DNA
C-26 cells [4]; C-26 cells
  DNA platination relative to Cis-Pt: 7 fold
OV-1063 cells [5]
  Pt-DNA adducts: 205 pmol Pt/50 μg DNA
OV-1063 cells [5]; OV-1063 cells
  DNA platination relative to Cis-Pt: 7 fold
[7]; 5 hr, 6.5 μM piperidine complex or 7.5 μM piperazine complex
  caspase-3 activation, increase in fluorescence vs untreated cells: ~2 fold
[7]; 16 hr
  caspase-3 activation, increase in fluorescence vs untreated cells: 3 fold
Plasmid pS16-hGH DNA
  decrease of EtBr fluorescence intensity by DNA adducts: considerable decrease in fluorescence
Calf thymus DNA
  % IEC/adduct, frequency of interstrand crosslinks: 6%
  unwinding angle per adduct: 17°
  ΔTm, 0.01M Na+: +4.7 0.C
  t1/2 half time of the binding to calf thymus DNA: 12 min
Calf thymus DNA; rb = 0.05
  ΔTm, 0.2 M: −3.5 0.C
  ΔΔεmax, maximum of the positive CD band at around 275 nm: −0.30
A2780cisR
  IC50: 24 ± 3 µM
  resistance factor (IC50 resistant/IC50 sensitive): 2.4
CH1
  IC50: 16 ± 2 µM
41M
  IC50: 45 ± 3 µM
41McisR
  resistance factor (IC50 resistant/IC50 sensitive): 3.3
  IC50: 147 ± 10 µM
A2780
  IC50: 10 ± 3 µM
CH1cisR
  IC50: 42 ± 3 µM
  resistance factor (IC50 resistant/IC50 sensitive): 2.6

## trans-[PtCl(PyAc—N,O)(NH3)]
[9]
  solubility in water: 4 to 5 mM
